Measured values taken from EP0371730A1, “Dopamine-B-Hydroxylase inhibitors” (SMITHKLINE BEECHAM CORPORATION, priority 1988, dated 1990).

Assays:
DBH = molecular target: T1, DBH (Homo sapiens, UniProt P09172); conditions: as reported by Runti et al.; cited from earlier work
T1 sequence (P09172 1-617): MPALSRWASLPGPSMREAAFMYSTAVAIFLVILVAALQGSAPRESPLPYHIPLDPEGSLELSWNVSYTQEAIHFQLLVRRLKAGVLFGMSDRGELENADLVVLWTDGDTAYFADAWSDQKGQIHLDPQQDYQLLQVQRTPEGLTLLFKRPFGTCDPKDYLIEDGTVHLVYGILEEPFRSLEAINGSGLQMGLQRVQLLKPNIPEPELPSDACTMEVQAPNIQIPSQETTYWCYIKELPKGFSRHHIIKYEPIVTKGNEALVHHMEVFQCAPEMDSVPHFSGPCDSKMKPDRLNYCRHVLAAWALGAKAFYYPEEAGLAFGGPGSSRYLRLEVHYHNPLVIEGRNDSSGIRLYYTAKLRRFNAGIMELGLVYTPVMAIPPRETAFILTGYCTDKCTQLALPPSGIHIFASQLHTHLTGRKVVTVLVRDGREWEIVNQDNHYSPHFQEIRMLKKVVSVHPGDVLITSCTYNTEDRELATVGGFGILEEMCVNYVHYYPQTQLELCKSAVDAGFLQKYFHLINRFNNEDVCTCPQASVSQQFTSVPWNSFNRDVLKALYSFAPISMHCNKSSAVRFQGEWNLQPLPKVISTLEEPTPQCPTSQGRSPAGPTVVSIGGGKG

[1] = see Teresawa et al.; cited from earlier work
[2] = test system: spontaneously hypertensive rats; experiment: mean arterial blood pressure in spontaneously hypertensive rats; format: in vivo; conditions: 50 mg/kg intraperitoneally, compared to vehicle-treated controls
Protocol: Further, spontaneously hypertensive rats were treated with 1-(2-imidazolylmethyl)-1,3-dihydro-2H-imidazole-2-thione at a dose of 50 mg/kg intraperitoneally, and mean arterial blood pressure was monitored for 250 minutes using indwelling cannulae in the tail arteries. […] The maximal blood pressure reduction was approximately 40 mmHg.

phenylpicolinic acid
inhibitory activity relative to fusaric acid (DBH): twice the inhibitory activity of fusaric acid

CCCCc1ccc(C(=O)O)nc1 [Fusaric acid]
hepatotoxicity [1]: hepatotoxic

S=c1[nH]ccn1Cc1ncc[nH]1 [1-(2-Imidazolylmethyl)-1,3-dihydro-2H-imidazole-2-thione]
time to significant blood pressure reductions following treatment [2]: ≤ 30 min | maximal blood pressure reduction ([2]; mean arterial blood pressure monitored for 250 minutes): approximately 40 mmHg
